Publication PMC7071059, “Targeting Receptor Tyrosine Kinase VEGFR-2 in Hepatocellular Cancer: Rational Design, Synthesis and Biological Evaluation of 1,2-Disubstituted Benzimidazoles” (Molecules, 2020)

Legend:
[1] = tested on: HepG2 cells; assay: Apoptosis assay, Annexin V-FITC/PI flow cytometry; format: cell-based, human; conditions: 48 h; for early apoptotic phase (Q4): control 0.80%; for late apoptotic phase (Q2): control 4.59%
Source text: Moreover, in order to examine the effect of compound 17a on cell apoptosis (programed cell death), the morphological markers of apoptosis of the HepG2 cell line were examined before and after treatment with 17a. This assay is based on the fact that cells performing apoptosis translocate their phosphatidylserine (PS) phospholipid to the cell surface, which, in turn, can be easily detected by staining with a fluorescent conjugate of annexin V, followed by flow cytometry analysis. Concurrently, the HepG2 cells were stained with propidium iodide (PI), which enters only cells with damaged plasma membranes. This stain allows the discrimination between early apoptotic cells (positive for PS, but negative for PI) from late apoptotic and necrotic cells (positive for both PS and PI).
Apoptosis and necrosis cell populations were determined using an Annexin V-FITC apoptosis detection kit (Abcam Inc., Cambridge Science Park, Cambridge, UK) coupled with 2 fluorescent channels flowcytometry. After treatment with test compounds for 48 h, cells (10^5 cells) were collected by trypsinization and washed twice with ice-cold PBS (pH 7.4). Then, cells were incubated in the dark with 0.5 ml of Annexin V-FITC/PI solution for 30 min in the dark at room temperature, according to the manufacturer’s protocol. After staining, cells were injected via ACEA Novocyte™ flowcytometer (ACEA Biosciences Inc., San Diego, CA, USA) and analyzed for FITC and PI fluorescent signals using FL1 and FL2 signal detectors, respectively (λex/em 488/530 nm for FITC and λex/em 535/617 nm for PI). For each sample, 12,000 events were acquired, and positive FITC and/or PI cells were quantified by quadrant analysis and calculated using ACEA NovoExpress™ software (ACEA Biosciences Inc., San Diego, CA, USA).

[2] = target: PDGFR-β (Homo sapiens, UniProt P09619); assay: Biochemical kinase assay
PDGFR-β, sequence (P09619 33-1106): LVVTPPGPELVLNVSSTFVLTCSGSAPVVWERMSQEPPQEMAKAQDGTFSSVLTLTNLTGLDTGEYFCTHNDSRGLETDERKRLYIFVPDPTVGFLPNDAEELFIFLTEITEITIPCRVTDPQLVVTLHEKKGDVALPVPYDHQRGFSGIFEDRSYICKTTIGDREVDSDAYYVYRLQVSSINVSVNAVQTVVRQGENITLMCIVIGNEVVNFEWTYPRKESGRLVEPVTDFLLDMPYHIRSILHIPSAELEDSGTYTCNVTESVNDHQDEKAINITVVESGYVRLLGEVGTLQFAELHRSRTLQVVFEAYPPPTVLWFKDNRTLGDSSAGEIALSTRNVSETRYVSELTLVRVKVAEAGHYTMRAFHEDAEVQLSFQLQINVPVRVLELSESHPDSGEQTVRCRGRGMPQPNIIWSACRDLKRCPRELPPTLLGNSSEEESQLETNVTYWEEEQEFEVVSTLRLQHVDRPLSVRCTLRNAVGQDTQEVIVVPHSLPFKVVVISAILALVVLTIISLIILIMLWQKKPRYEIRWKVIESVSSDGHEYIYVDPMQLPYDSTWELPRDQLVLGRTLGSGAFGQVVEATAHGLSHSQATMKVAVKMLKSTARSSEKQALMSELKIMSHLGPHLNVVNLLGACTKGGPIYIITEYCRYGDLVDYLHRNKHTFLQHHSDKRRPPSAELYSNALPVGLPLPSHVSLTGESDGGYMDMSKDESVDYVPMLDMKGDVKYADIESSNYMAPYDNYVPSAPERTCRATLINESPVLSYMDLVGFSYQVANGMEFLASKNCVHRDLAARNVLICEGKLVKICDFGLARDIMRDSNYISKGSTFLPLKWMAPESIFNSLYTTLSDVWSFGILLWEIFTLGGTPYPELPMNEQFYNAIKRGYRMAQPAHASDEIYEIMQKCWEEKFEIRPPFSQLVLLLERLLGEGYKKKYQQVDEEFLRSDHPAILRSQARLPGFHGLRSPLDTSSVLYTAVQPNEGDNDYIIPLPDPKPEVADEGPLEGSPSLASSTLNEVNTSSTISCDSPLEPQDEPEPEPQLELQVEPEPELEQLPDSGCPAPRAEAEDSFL
Procedure: (§1) This assay was carried out using the VEGFR-2 kinase enzyme system or FGFR-1 kinase enzyme system and Kinase-Glo Plus luminescence kinase (Promega) kits according to the manufacturers´ protocols. This assay evaluated the activity of kinase by measuring the amount of ATP remaining in solution after a kinase reaction. The luminescent signal from the assay was related to the quantity of ATP available, which was inversely proportional to the amount of kinase activity. […] Subsequently, serial dilutions were carried out, and 5 µL of the dilution was added to a 50 µL reaction. The enzymatic reactions were performed at 30 °C for 45 minutes. […] After the enzymatic reaction, 50 µL of Kinase-Glo Plus Luminescence kinase assay solution was added to each reaction, and the plates were incubated for 15 minutes at room temperature. The luminescence signal was measured using a Tecan–spark multimode microplate reader. The difference between luminescence intensities in the absence of Kinase (Lut) and in the presence of Kinase (Luc) was defined as 100% activity (Lut − Luc). Using a luminescence signal (Lu) in the presence of the compound, % activity was calculated as: % activity = {(Lut − Lu)/(Lut − Luc)}×100%, where Lu = the luminescence intensity in the presence of the compound.

[3] = tested on: HepG2 cells; assay: Analysis of cell cycle distribution, flow cytometry of propidium iodide-stained nuclei; format: cell-based, human; conditions: HepG2, 2 µM, 48 h
Procedure: Based on the promising antiproliferative activity and antiangiogenic activity of series 17, compound 17a was further assayed for its effect on the cell cycle distribution by flow cytometric analyses of propidium iodide-stained nuclei at 2 µM. Cell cycle parameters were compared for HepG2 cells with DMSO as control and after treatment with 17a and incubation for 48 h, and the results were depicted in Figure 8.
After treatment with test compounds for 48 h, cells (10^5 cells) were collected by trypsinization and washed twice with ice-cold PBS (pH 7.4). Cells were resuspended in two milliliters of 60% ice-cold ethanol and incubated at 4 °C for 1 h for fixation. Fixed cells were washed twice again with PBS (pH 7.4) and resuspended in 1 mL of PBS containing 50 µg/mL RNAase A and 10 µg/mL propidium iodide (PI). After 20 min of incubation in dark at 37 °C, cells were analyzed for DNA contents using flow cytometry analysis using an FL2 (λex/em 535/617 nm) signal detector (ACEA Novocyte™ flowcytometer, ACEA Biosciences Inc., San Diego, CA, USA). For each sample, 12,000 events were acquired. The cell cycle distribution was calculated using ACEA NovoExpress™ software (ACEA Biosciences Inc., San Diego, CA, USA).

[4] = target: FGFR-1 (Homo sapiens, UniProt P11362); assay: Biochemical kinase assay (Kinase-Glo Plus luminescence)
FGFR-1, sequence (P11362 22-822): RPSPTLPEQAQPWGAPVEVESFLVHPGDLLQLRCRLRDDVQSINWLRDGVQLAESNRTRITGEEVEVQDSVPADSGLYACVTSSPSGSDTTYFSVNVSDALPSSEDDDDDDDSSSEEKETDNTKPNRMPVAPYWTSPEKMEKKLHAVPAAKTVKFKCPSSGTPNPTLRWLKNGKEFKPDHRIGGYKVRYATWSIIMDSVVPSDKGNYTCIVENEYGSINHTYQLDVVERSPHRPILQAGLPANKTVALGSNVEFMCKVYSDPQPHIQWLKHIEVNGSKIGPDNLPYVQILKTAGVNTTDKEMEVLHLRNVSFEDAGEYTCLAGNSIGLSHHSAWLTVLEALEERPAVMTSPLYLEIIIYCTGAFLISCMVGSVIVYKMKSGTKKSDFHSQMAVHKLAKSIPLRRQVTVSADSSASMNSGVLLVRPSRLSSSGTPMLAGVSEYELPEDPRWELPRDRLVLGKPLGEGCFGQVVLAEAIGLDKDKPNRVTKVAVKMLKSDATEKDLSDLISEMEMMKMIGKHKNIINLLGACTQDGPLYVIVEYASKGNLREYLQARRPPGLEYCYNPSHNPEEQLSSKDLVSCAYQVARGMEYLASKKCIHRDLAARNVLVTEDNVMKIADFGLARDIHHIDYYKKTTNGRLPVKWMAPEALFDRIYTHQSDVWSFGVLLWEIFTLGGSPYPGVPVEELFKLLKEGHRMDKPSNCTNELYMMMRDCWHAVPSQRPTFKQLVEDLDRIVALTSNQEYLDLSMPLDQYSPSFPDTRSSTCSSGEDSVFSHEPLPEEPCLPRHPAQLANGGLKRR
Procedure: as §1

CC(C)c1nc2ccccc2n1CC(=O)N/N=C/c1cccc(OCc2ccccc2)c1 [Compound 17a, (E)-N′-(3-(Benzyloxy)benzylidene)-2-(2-isopropyl-1H-benzo[d]imidazol-1-yl)acetohydrazide]
early apoptotic phase (Q4) ([1]; HepG2, 2 μM): 2.90%
late apoptotic phase (Q2) ([1]; HepG2, 2 μM): 8.89%
early apoptotic phase (Q4) ([1]; HepG2, 5 μM): 6.32%
late apoptotic phase (Q2) ([1]; HepG2, 5 μM): 9.53%
IC50 [2]: 50 ± 2 nM
Freq S [3]: 26.96%
effect on the HepG2 cell cycle [3]: arrests the cell cycle at the G2/M phase
percent of cells accumulated in the G2 phase (Freq G2) ([3]; control 13.43%): 25.86%
percent of cell distribution in the G1 phase (Freq G1) ([3]; control 51.34%): 46.96%
IC50 [4]: 110 ± 4 nM
